pIC50: −log10 of the molar value.
biological target: T1, GR (Homo sapiens, UniProt P04150); assay: In Vitro GR Luciferase Reporter Assay (antagonist mode, CHO-K1-GR-MMTV-Luc reporter cells); type: cell-based; settings: antagonist assay with 10 nM Dexamethasone, 18-24 hours
T1 construct: expressed in transfected cells; host or cells: CHO-K1
T1 sequence (P04150 1-777): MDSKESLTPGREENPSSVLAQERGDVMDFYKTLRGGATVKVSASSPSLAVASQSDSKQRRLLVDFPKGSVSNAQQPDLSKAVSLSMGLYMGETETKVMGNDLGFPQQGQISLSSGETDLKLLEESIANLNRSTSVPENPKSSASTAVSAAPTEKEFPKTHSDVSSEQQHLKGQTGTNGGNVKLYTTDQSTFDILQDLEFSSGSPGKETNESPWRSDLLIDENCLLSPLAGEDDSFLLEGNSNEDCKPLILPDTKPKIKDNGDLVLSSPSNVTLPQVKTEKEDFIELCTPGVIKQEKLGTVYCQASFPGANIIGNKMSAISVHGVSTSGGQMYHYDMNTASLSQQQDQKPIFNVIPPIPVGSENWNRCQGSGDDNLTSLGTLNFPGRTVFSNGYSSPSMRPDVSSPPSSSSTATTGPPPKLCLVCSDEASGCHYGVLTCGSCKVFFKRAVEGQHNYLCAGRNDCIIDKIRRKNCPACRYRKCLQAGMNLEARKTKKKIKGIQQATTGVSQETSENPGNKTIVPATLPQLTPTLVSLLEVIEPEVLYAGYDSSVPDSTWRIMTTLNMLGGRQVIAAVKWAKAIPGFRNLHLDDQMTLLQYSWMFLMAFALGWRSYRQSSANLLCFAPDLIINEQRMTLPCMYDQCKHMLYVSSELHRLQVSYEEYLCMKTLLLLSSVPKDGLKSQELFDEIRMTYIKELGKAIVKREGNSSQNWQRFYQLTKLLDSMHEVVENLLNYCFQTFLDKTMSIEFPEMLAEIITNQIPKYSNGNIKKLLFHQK
Procedure, shortened: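 Antagonist mode: compounds (8 serial 1:5 dilutions) added to GR-MMTV-luciferase CHO-K1 reporter cells co-exposed to 10 nM dexamethasone final, in phenol red-free DMEM plus 10% CSS. After roughly 18-24 h at 37° C, OneGlo luminescence read and IC50 calculated.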

pIC50, ≥ 7.00:
CN([C@H]1CCC2=Cc3c(cnn3-c3ccc(F)cc3)C[C@]2(C(=O)c2cc(C(F)(F)F)ccn2)C1)S(=O)(=O)c1ccc(F)cc1 [Example 5, 4-Fluoro-N-((4aS,6S)-1-(4-fluorophenyl)-4a-(4-(trifluoromethyl)picolinoyl)-4,4a,5,6,7,8-hexahydro-1H-benzo[f]indazol-6-yl)-N-methylbenzenesulfonamide]
Cn1cc(S(=O)(=O)N(C2CC2)[C@H]2CCC3=Cc4c(cnn4-c4ccc(F)cc4)C[C@]3(C(=O)c3cc(C(F)(F)F)ccn3)C2)cn1 [Example 88, N-cyclopropyl-N-((4aS,6S)-1-(4-fluorophenyl)-4a-(4-(trifluoromethyl)picolinoyl)-4,4a,5,6,7,8-hexahydro-1H-benzo[f]indazol-6-yl)-1-methyl-1H-pyrazole-4-sulfonamide]
CN([C@H]1CCC2=Cc3c(cnn3-c3ccc(F)cc3)C[C@]2(C(=O)c2cc(C(F)(F)F)ccn2)C1)S(=O)(=O)c1ccn(C)n1 [Example 98, N-((4aS,6S)-1-(4-fluorophenyl)-4a-(4-(trifluoromethyl)picolinoyl)-4,4a,5,6,7,8-hexahydro-1H-benzo[f]indazol-6-yl)-N,1-dimethyl-1H-pyrazole-3-sulfonamide]
Cn1cc(S(=O)(=O)N(CC2CC2)[C@H]2CCC3=Cc4c(cnn4-c4ccc(F)cc4)C[C@]3(C(=O)c3cc(C(F)(F)F)ccn3)C2)cn1 [Example 103, N-(cyclopropylmethyl)-N-((4aS,6S)-1-(4-fluorophenyl)-4a-(4-(trifluoromethyl)picolinoyl)-4,4a,5,6,7,8-hexahydro-1H-benzo[f]indazol-6-yl)-1-methyl-1H-pyrazole-4-sulfonamide]

same assay, conditions: antagonist mode, 10 nM Dexamethasone

pIC50, ≥ 7.00:
Cn1cc(S(=O)(=O)C[C@H]2CCC3=Cc4c(cnn4-c4ccc(F)cc4)C[C@]3(C(=O)c3cc(C(F)(F)F)ccn3)C2)cn1 (single isomer, unassigned) [Example 118]
Cn1ccc(S(=O)(=O)N(CC(F)(F)F)[C@H]2CCC3=Cc4c(cnn4-c4ccc(F)cc4)C[C@]3(C(=O)c3cc(C(F)(F)F)ccn3)C2)n1 [Example 111, N-((4aS,6S)-1-(4-Fluorophenyl)-4a-(4-(trifluoromethyl)picolinoyl)-4,4a,5,6,7,8-hexahydro-1H-benzo[f]indazol-6-yl)-1-methyl-N-(2,2,2-trifluoroethyl)-1H-pyrazole-3-sulfonamide]
Cn1ccc(S(=O)(=O)[C@H]2CCC3=Cc4c(cnn4-c4ccc(F)cc4)C[C@]3(C(=O)c3cc(C(F)(F)F)ccn3)C2)n1 [Example 113, ((4aS,6S)-1-(4-Fluorophenyl)-6-((1-methyl-1H-pyrazol-3-yl)sulfonyl)-1,4,5,6,7,8-hexahydro-4aH-benzo[f]indazol-4a-yl)(4-(trifluoromethyl)pyridin-2-yl)methanone]
Cn1ccc(S(=O)(=O)N(C2CC2)[C@H]2CCC3=Cc4c(cnn4-c4ccc(F)cc4)C[C@]3(C(=O)c3cc(C(F)(F)F)ccn3)C2)n1 [Example 138, N-cyclopropyl-N-((4aS,6S)-1-(4-fluorophenyl)-4a-(4-(trifluoromethyl)picolinoyl)-4,4a,5,6,7,8-hexahydro-1H-benzo[f]indazol-6-yl)-1-methyl-1H-pyrazole-3-sulfonamide]
O=C(c1ncc(C(F)(F)F)s1)[C@]12Cc3cnn(-c4ccc(F)cc4)c3C=C1CC[C@H](N(C1CC1)S(=O)(=O)c1ccc(F)cc1)C2 [Example 177, N-cyclopropyl-4-fluoro-N-((4aS,6S)-1-(4-fluorophenyl)-4a-(5-(trifluoromethyl)thiazole-2-carbonyl)-4,4a,5,6,7,8-hexahydro-1H-benzo[f]indazol-6-yl)benzenesulfonamide]
Cn1ccc(S(=O)(=O)N(CC2CC2)[C@H]2CCC3=Cc4c(cnn4-c4ccc(F)cc4)C[C@]3(C(=O)c3ncc(C(F)(F)F)s3)C2)n1 [Example 179, N-(cyclopropylmethyl)-N-((4aS,6S)-1-(4-fluorophenyl)-4a-(5-(trifluoromethyl)thiazole-2-carbonyl)-4,4a,5,6,7,8-hexahydro-1H-benzo[f]indazol-6-yl)-1-methyl-1H-pyrazole-3-sulfonamide]
CC(C)N([C@H]1CCC2=Cc3c(cnn3-c3ccc(F)cc3)C[C@]2(C(=O)c2cc(C(F)(F)F)ccn2)C1)S(=O)(=O)c1ccn(C)n1 [Example 186, N-((4aS,6S)-1-(4-fluorophenyl)-4a-(4-(trifluoromethyl)picolinoyl)-4,4a,5,6,7,8-hexahydro-1H-benzo[f]indazol-6-yl)-N-isopropyl-1-methyl-1H-pyrazole-3-sulfonamide]
CC(C)N(C(=O)c1cnn(C)c1)[C@H]1CCC2=Cc3c(cnn3-c3ccc(F)cc3)C[C@]2(C(=O)c2ncc(C(F)(F)F)s2)C1 [Example 211, N-((4aS,6S)-1-(4-fluorophenyl)-4a-(5-(trifluoromethyl)thiazole-2-carbonyl)-4,4a,5,6,7,8-hexahydro-1H-benzo[f]indazol-6-yl)-N-isopropyl-1-methyl-1H-pyrazole-4-carboxamide]
Cn1ccc(S(=O)(=O)N(C2CC(F)(F)C2)[C@H]2CCC3=Cc4c(cnn4-c4ccc(F)cc4)C[C@]3(C(=O)c3cc(C(F)(F)F)ccn3)C2)n1 [Example 227, N-(3,3-difluorocyclobutyl)-N-((4aS,6S)-1-(4-fluorophenyl)-4a-(4-(trifluoromethyl)picolinoyl)-4,4a,5,6,7,8-hexahydro-1H-benzo[f]indazol-6-yl)-1-methyl-1H-pyrazole-3-sulfonamide]
O=C(c1cc(Cl)ccn1)[C@]12Cc3cnn(-c4ccc(F)cc4)c3C=C1CC[C@H](N(C1CC1)S(=O)(=O)c1ccc(F)cc1)C2 [Example 232, N-((4aS,6S)-4a-(4-chloropicolinoyl)-1-(4-fluorophenyl)-4,4a,5,6,7,8-hexahydro-1H-benzo[f]indazol-6-yl)-N-cyclopropyl-4-fluorobenzenesulfonamide]
Cn1cc(S(=O)(=O)N(CC(C)(C)O)[C@H]2CCC3=Cc4c(cnn4-c4ccc(F)cc4)C[C@]3(C(=O)c3cc(F)ccn3)C2)cn1 [Example 248, N-((4aS,6S)-1-(4-fluorophenyl)-4a-(4-fluoropicolinoyl)-4,4a,5,6,7,8-hexahydro-1H-benzo[f]indazol-6-yl)-N-(2-hydroxy-2-methylpropyl)-1-methyl-1H-pyrazole-4-sulfonamide]
Cn1ccc(S(=O)(=O)N(C2CC(F)(F)C2)[C@H]2CCC3=Cc4c(cnn4-c4ccc(F)cc4)C[C@]3(C(=O)c3ncc(C(F)(F)F)s3)C2)n1 [Example 270, N-(3,3-difluorocyclobutyl)-N-((4aS,6S)-1-(4-fluorophenyl)-4a-(5-(trifluoromethyl)thiazole-2-carbonyl)-4,4a,5,6,7,8-hexahydro-1H-benzo[f]indazol-6-yl)-1-methyl-1H-pyrazole-3-sulfonamide]
Cn1ccc(S(=O)(=O)N([C@H]2CCC3=Cc4c(cnn4-c4ccc(F)cc4)C[C@]3(C(=O)c3ncc(C(F)(F)F)s3)C2)[C@H]2C[C@@](C)(O)C2)n1 [Example 277, N-((4aS,6S)-1-(4-fluorophenyl)-4a-(5-(trifluoromethyl)thiazole-2-carbonyl)-4,4a,5,6,7,8-hexahydro-1H-benzo[f]indazol-6-yl)-N-((1s,3R)-3-hydroxy-3-methylcyclobutyl)-1-methyl-1H-pyrazole-3-sulfonamide]
Cn1cnc(S(=O)(=O)N(C2CC2)[C@H]2CCC3=Cc4c(cnn4-c4ccc(F)cc4)C[C@]3(C(=O)c3ncc(C(F)(F)F)s3)C2)n1 [Example 305, N-cyclopropyl-N-((4aS,6S)-1-(4-fluorophenyl)-4a-(5-(trifluoromethyl)thiazole-2-carbonyl)-4,4a,5,6,7,8-hexahydro-1H-benzo[f]indazol-6-yl)-1-methyl-1H-1,2,4-triazole-3-sulfonamide]
Cn1cnc(S(=O)(=O)N(C2CC2)[C@H]2CCC3=Cc4c(cnn4-c4ccc(F)cc4)C[C@]3(C(=O)c3cc(C(F)(F)F)ccn3)C2)n1 [Example 306, N-cyclopropyl-N-((4aS,6S)-1-(4-fluorophenyl)-4a-(4-(trifluoromethyl)picolinoyl)-4,4a,5,6,7,8-hexahydro-1H-benzo[f]indazol-6-yl)-1-methyl-1H-1,2,4-triazole-3-sulfonamide]

From patent publication US20210122730A1, “GLUCOCORTICOID RECEPTOR MODULATORS” (ORIC Pharmaceuticals, Inc., priority 2017, published 2021)
